Earlier results in patent publication US4101676A, “Diphenylpropylamines to treat depression” (Beecham Group Limited, priority 1973, dated 1978).

Tested on: central nervous system
Settings: Barron et al, J. Pharm. Pharmacol., 17, 509 (1965); cited from earlier work

## CN(C)CCC(O)(c1ccccc1)c1ccccc1 [1:1-diphenyl-3-dimethylaminopopan-1-ol]
  effects on the central nervous system: considerable effects on the central nervous system
  side effects: anorexia, diuresis, ataxia and drowsiness
